In assay [1] the test system is SH-SY5Y cells over-expressing α-syn. Description: Cell viability (MTS reduction) in SH-SY5Y cells over-expressing α-synuclein. The assay is classed as cell-based. The note with it: Homo sapiens, 336 h, α-syn over-expression (−dox), compounds at 10 nM, +dox control = 100, 14 days, read-out: Relative cell viability protection. The procedure: Cell Culture. SH-SY5Y cells stably transfected with a doxycyline-inducible wild-type α-synuclein (α-syn) gene along with control SH-SY5Y cells over-expressing the β-galactosidase (β-gal) gene (a gift from L. Stefanis, Division of Basic Neurosciences, Biomedical Research Foundation of the Academy of Athens, Athens, Greece) are cultured as described by Vekrellis et al. (Vekrellis K, Xilouri M, Emmanouilidou E, Stefanis L. (2009). Inducible over-expression of α-syn in human neuronal cells leads to caspase-dependent non-apoptotic death. J Neurochem 109, 1348-1362). In accordance with this method, cells are cultured and maintained in RPMI 1640, 10% fetal bovine serum supplemented with 250 μg/mL G418 and 50 μg/mL Hygromycin B. Expression of α-syn is switched off in stock cultures with doxycycline (2 μg/mL). For experimental procedures, cells are plated at (4−8×10^4 cells/cm^2) and differentiated in absence of doxycycline and in the presence of 20 μM all-trans retinoic acid (RA) (Sigma, St Louis, Mo., USA).
Viability Assay: Cells are cultured in 96-well plates. After 24 h, cells are treated with RA and Compounds of Invention at 0.1 and 10 nM in the absence of doxycyline. Culture medium with RA and drugs is fully replaced after 7 days. Cell viability is measured by the release of lactate dehydrogenase (LDH) from necrotic cells into the culture medium and by measuring the capacity of cells to metabolize MTS tetrazolium (MTS) after 14 days in culture. LDH leakage is assessed according to the Cytotoxicity Detection KitPlus (Roche, Mannheim, Germany) and MTS reduction is assessed by the CellTiter 96® AQueous One Solution Cell Proliferation assay (Promega Corporation, Madison, Wis., USA).
Assay results for the experiments with α-syn over-expression are presented as the MTS reduction capacity (cell viability) of control cells (+dox), cells over-expressing α-syn (−dox), and cells over-expressing α-syn incubated with Compounds of the Invention at 0.1 nM (FIG. 18A) or 10 nM (FIG. 18B).
In general terms: Tetrazolium dyes change colour on reduction, which living cells bring about.

The target of assay [2] is T1, human recombinant adrenergic α2A receptor (Homo sapiens, UniProt P08913).
T1 construct: expressed in transfected cells; host or cells: insect Sf9 cells
T1 sequence (P08913 1-465): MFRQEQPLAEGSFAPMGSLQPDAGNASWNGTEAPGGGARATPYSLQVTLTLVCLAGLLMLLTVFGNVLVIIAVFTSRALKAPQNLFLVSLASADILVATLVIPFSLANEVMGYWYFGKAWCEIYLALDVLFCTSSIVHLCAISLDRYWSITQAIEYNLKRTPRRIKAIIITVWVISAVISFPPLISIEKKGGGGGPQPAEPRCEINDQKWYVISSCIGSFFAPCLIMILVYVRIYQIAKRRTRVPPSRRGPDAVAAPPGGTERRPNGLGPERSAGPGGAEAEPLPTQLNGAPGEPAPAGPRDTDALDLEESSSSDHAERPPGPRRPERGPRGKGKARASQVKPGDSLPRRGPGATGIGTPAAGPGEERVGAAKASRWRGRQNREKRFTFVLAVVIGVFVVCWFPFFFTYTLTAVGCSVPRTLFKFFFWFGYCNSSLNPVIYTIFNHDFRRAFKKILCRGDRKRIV
The assay can be described thus: Radioligand binding, adrenergic α2A ([3H]MK-912). Summed up: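 Sf9 membranes, 1 nM [3H]MK-912, 60 min, 25 °C, Tris-HCl pH 7.4/MgCl2/EDTA buffer. NSB: 10 μM WB-4101. Filtration, counting; % inhibition of specific binding.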

Assay [3] deals with T2, human recombinant adrenergic α2B receptor (Homo sapiens, UniProt P18089).
T2 construct: expressed in transfected cells; host or cells: CHO-K1
T2 sequence (P18089 1-450): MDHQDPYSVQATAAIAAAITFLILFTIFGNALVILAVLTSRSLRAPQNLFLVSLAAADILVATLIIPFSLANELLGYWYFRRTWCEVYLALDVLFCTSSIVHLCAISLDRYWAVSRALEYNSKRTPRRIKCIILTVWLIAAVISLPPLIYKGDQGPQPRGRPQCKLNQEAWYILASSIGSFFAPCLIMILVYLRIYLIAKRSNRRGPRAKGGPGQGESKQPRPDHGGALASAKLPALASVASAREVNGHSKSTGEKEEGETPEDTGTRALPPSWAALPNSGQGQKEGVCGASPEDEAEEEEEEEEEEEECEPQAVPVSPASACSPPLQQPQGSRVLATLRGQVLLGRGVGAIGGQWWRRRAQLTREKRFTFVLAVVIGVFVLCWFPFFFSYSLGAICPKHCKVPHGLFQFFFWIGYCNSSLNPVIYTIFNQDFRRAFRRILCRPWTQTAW
Description: Radioligand binding, adrenergic α2B ([3H]Rauwolscine). A digest of the protocol:
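Receptor expressed in CHO-K1 cells, assayed in 50 mM Tris-HCl pH 7.4 with 12.5 mM MgCl2, 1 mM EDTA and 0.2% BSA. Compounds were incubated with 2.5 nM [3H]Rauwolscine for 60 min at 25° C; 10 μM Prazosin defined non-specific binding. Filter counting gave percent inhibition of specific binding.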

In assay [4] the target is T3, rat adrenergic α1B receptor (Rattus norvegicus, UniProt P15823).
T3 construct: rat adrenergic α1B receptor obtained from Wistar Rat liver; from tissue; host or cells: Wistar rat liver
T3 sequence (P15823 1-515): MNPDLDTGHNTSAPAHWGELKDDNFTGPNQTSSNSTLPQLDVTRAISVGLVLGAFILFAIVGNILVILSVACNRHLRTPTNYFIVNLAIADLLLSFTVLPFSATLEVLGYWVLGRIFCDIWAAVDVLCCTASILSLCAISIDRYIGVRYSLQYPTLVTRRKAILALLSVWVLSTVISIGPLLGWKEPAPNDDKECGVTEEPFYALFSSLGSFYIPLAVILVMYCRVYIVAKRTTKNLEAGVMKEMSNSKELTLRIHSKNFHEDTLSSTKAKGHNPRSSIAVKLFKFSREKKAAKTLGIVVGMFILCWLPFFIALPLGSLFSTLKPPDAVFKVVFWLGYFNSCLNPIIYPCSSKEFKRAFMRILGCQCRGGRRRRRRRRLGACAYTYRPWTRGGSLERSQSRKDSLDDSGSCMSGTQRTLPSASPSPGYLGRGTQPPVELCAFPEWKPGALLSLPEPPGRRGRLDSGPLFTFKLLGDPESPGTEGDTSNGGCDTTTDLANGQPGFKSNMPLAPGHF
The assay can be described thus: Radioligand binding, adrenergic α1B ([3H]Prazosin). Summed up: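 Specific binding, taken as total minus that remaining with 10 μM phentolamine, is measured after filtration and counting. Rat liver receptor preparation and 0.25 nM [3H]prazosin are incubated with compound in 50 mM Tris-HCl (pH 7.4, 0.5 mM EDTA) at 25° C for 60 min. Activity is reported as percent inhibition.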

In assay [5] the target is T4, human recombinant adrenergic α1D receptor (Homo sapiens, UniProt P25100).
T4 construct: expressed in transfected cells; host or cells: HEK-293
T4 sequence (P25100 1-572): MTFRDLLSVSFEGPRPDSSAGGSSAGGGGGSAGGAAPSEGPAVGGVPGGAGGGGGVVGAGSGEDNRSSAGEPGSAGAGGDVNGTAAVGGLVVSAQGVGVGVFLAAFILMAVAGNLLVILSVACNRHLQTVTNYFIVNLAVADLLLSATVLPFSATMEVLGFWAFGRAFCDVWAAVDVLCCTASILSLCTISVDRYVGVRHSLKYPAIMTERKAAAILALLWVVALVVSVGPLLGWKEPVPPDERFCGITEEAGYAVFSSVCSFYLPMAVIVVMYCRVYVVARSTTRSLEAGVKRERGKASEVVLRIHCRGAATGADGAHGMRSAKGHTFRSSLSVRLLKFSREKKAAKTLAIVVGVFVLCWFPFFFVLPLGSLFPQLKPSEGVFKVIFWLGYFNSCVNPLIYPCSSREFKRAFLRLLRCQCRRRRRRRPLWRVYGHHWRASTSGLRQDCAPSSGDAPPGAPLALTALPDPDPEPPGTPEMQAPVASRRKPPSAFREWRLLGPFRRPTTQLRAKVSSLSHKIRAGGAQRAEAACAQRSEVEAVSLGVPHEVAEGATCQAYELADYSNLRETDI
The assay can be described thus: Radioligand binding, adrenergic α1D ([3H]Prazosin). The procedure: Compounds were incubated with 0.6 nM [3H]Prazosin for 60 min at 25° C. Non-specific binding was estimated in the presence of 10 μM phentolamine. Receptor proteins were filtered and washed, the filters were then counted to determine [3H]Prazosin specifically bound. […] Biochemical assay results are presented as the percent inhibition of specific binding in Table B1.

[6] abbreviates: 0.1 μM compound, read-out: Percentage inhibition of ligand binding, Adrenergic α2A.
The mark [7] stands for this setting: 0.1 μM compound, read-out: Percentage inhibition of ligand binding, Adrenergic α2B.
[8] abbreviates: 0.1 μM compound, read-out: Percentage inhibition of ligand binding, Adrenergic α1B.
The mark [9] stands for this setting: 0.1 μM compound, read-out: Percentage inhibition of ligand binding, Adrenergic α1D.
Setting [10] is: read-out: Percentage inhibition of ligand binding, Adrenergic α2A (0.1 μM), compound at 0.1 μM, [3H]MK-912, repeat datapoints each shown.
Where [11] appears, read: read-out: Percentage inhibition of ligand binding, Adrenergic α2B (0.1 μM), compound at 0.1 μM, [3H]Rauwolscine, repeat datapoints each shown.
Where [12] appears, read: read-out: Percentage inhibition of ligand binding, Adrenergic α1B (0.1 μM), compound at 0.1 μM, [3H]Prazosin, repeat datapoints each shown.
[13] abbreviates: read-out: Percentage inhibition of ligand binding, Adrenergic α1D (0.1 μM), compound at 0.1 μM, [3H]Prazosin, repeat datapoints each shown.

Read-outs that look alike come from different tables or passages of the source.

What is called viability is the share of living cells, or the viability signal relative to a control. By inhibition is commonly meant the percentage by which the read-out fell short of the control. In general, Ki refers to a measure of affinity in units of concentration, obtained from inhibition or displacement.

For `Cc1ccc2c(c1)c1c(n2CC(O)c2ccncc2)CCNC1` (stereo not drawn) [Cpd39a], in assay [1], the viability at 0.01 µM stood at 80.8%.
With `CN1CCc2c(c3cc(Cl)ccc3n2CC(O)c2ccncc2)C1` (stereo not drawn) [Cpd4a], the viability at 0.01 µM in assay [1] was 77.5%.
Take `Cc1ccc2c(c1)c1c(n2CC(O)c2ccncc2)CCN(C)C1` (stereo not drawn) [Cpd3b]: the viability at 0.01 µM in assay [1] stood at 78.3%.
For the compound `Cc1ccc(C#Cn2c3c(c4cc(C)ccc42)CN(C)CC3)nc1` [compound 328, 2,8-dimethyl-5-(5-methyl-pyridin-2-ylethynyl)-2,3,4,5-tetrahydro-1H-pyrido[4,3-b]indole], the inhibition at 0.1 µM in assay [2] (setting [6]) was 76%; in assay [3] (setting [7]), 93%; in assay [4] (setting [8]), 95%; in assay [5] (setting [9]), 80%.
For the compound `CN1CCc2c(c3cc(Cl)ccc3n2CCc2cccnc2)C1` [compound 60], the inhibition at 0.1 µM in assay [2] (compound at 0.1 μM, [3H]MK-912, repeat assays, each datapoint shown, read-out: Percentage inhibition of ligand binding, Adrenergic α2A) was found to be 26%; in assay [3] (compound at 0.1 μM, [3H]Rauwolscine, repeat assays, each datapoint shown, read-out: Percentage inhibition of ligand binding, Adrenergic α2B) it was 93%; in assay [4] (compound at 0.1 μM, [3H]Prazosin, repeat assays, each datapoint shown, read-out: Percentage inhibition of ligand binding, Adrenergic α1B), 65%; in assay [5] (compound at 0.1 μM, [3H]Prazosin, repeat assays, each datapoint shown, read-out: Percentage inhibition of ligand binding, Adrenergic α1D) it was 35%. Besides, in assay [3] (compound at 0.03 μM, [3H]Rauwolscine, repeat assays, each datapoint shown, read-out: Percentage inhibition of ligand binding, Adrenergic α2B), the inhibition at 0.03 µM came to 66%. Also, in assay [3] (read-out: Ki α2B), the Ki was 5.84 nM.
In the case of `C/C(=C\n1c2c(c3cc(C)ccc31)CCN(C)CC2)c1ccncn1` [compound 106], the inhibition at 0.1 µM in assay [2] (setting [10]) is 6%; in assay [3] (setting [11]), 79%; in assay [4] (setting [12]), 65%; in assay [5] (setting [13]) it was 45%.
With `C/C(=C\n1c2c(c3cc(C)ccc31)CN(C)CC2)c1cnn(C)c1` [compound 109], the inhibition at 0.1 µM was 25% in assay [2] (setting [10]), 69% in assay [3] (setting [11]), 13% in assay [4] (setting [12]) and 21% in assay [5] (setting [13]).
`CC(=O)Nc1ccc(/C(C)=C/n2c3c(c4cc(C)ccc42)CN(C)CC3)cn1` [compound 112]: the inhibition at 0.1 µM in assay [2] (setting [10]) worked out at 26%; in assay [3] (setting [11]), 79%; in assay [4] (setting [12]), 44%; in assay [5] (setting [13]) it was 40%.
`C/C(=C/n1c2c(c3cc(Cl)ccc31)CCN(C)CC2)c1cccc(F)c1` [compound 247]: the inhibition at 0.1 µM turned out to be 96% in assay [2] (setting [6]), 89% in assay [3] (setting [7]), 95% in assay [4] (setting [8]) and 81% in assay [5] (setting [9]).
Turning to `C/C(=C/n1c2c(c3cc(C)ccc31)CN(C)CC2)c1sccc1C` [compound 287], the inhibition at 0.1 µM came to 99% in assay [2] (setting [6]), 98% in assay [3] (setting [7]), 81% in assay [4] (setting [8]) and 69% in assay [5] (setting [9]).
For `C/C(=C\c1ccccc1)n1c2c(c3cc(C)ccc31)CN(C)CC2` [compound 265], in that order: 67%, 70%, 50% and 30%.
`Cc1ccc2c(c1)c1c(n2CC(C)(O)c2cccnc2)CCN(C)C1` (stereo not drawn) [Cpd5b]: in assay [1], the viability at 0.01 µM was 85.3%.
Regarding `Cc1ccc2c(c1)c1c(n2C2=C(c3ccnn3C)CCC2)CCN(C)C1` [compound 309, 2,8-dimethyl-5-(2-(1-methyl-1H-pyrazol-5-yl)cyclopent-1-enyl)-2,3,4,5-tetrahydro-1H-pyrido[4,3-b]indole], the inhibition at 0.1 µM was found to be 57% in assay [2] (setting [6]), 37% in assay [3] (setting [7]), 23% in assay [4] (setting [8]) and 40% in assay [5] (setting [9]).

Source of the values: patent US8791132B2, “Compounds and methods for treatment of hypertension” (Medivation Technologies, Inc., priority 2011, dated 2014).
